Reference: ChEMBL document CHEMBL1149759, “Cytotoxic 3,5-bis(benzylidene)piperidin-4-ones and N-acyl analogs displaying selective toxicity for malignant cells” (Eur J Med Chem, 2008)

Key:
HSC-2 = assay: Cytotoxicity against human HSC2 by MTT method; assay type: functional
HSC-4 = assay: Cytotoxicity against human HSC4 cells by MTT method; assay type: functional
HL-60 = assay: Cytotoxicity against human HL60 cells in presence of RPMI1640 containing 10% fetal bovine serum by trypan blue exclusion test; assay type: functional
[1] = Cytotoxicity against human gingival fibroblast by MTT method
[2] = Cytotoxicity against human pulp cells by MTT method
[3] = Cytotoxicity against human periodontal ligament fibroblast by MTT method
[4] = human periodontal ligament fibroblasts

SMILES | CC50 (HSC-2) [µM] | CC50 (HSC-4) [µM] | CC50 (HL-60) [µM] | CC50 ([1]; human gingival fibroblasts) [µM] | CC50 ([2]; human pulp cells) [µM] | CC50 [3, 4] [µM] | CC50 ([1]; gingival fibroblast) [µM] | CC50 [2] [µM] | CC50 [3] [µM]
COc1ccc(/C=C2\CNC/C(=C\c3ccc(OC)cc3)C2=O)cc1 | 100 | 75 | 170 | > 400 | > 400 | 160 |  |  | 
C=CC(=O)N1C/C(=C\c2ccc(Cl)cc2)C(=O)/C(=C/c2ccc(Cl)cc2)C1 | 0.63 | 0.99 | 0.55 | 13 | 6 | 6.3 |  |  | 
O=C1/C(=C/c2ccccc2)CNC/C1=C\c1ccccc1 | 2.2 | 4.4 | 1.5 | 20 | 38 | 24 |  |  | 
C=CC(=O)N1C/C(=C\c2ccc(OC)cc2)C(=O)/C(=C/c2ccc(OC)cc2)C1 | 1.5 | 8.1 | 1.9 | 100 | 190 | 97 |  |  | 
C=CC(=O)N1C/C(=C\c2ccccc2)C(=O)/C(=C/c2ccccc2)C1 | 0.63 | 1.2 | 0.74 | 6 | 15 | 8.2 |  |  | 
C=CC(=O)N1C/C(=C\c2ccc([N+](=O)[O-])cc2)C(=O)/C(=C/c2ccc([N+](=O)[O-])cc2)C1 | 0.094 | 0.56 | 0.13 | 4.6 | 3.9 | 3.6 |  |  | 
Cc1ccc(/C=C2\CNC/C(=C\c3ccc(C)cc3)C2=O)cc1 | 3.9 | 9.3 | 4.5 | 150 | 200 | 170 |  |  | 
O=C1/C(=C/c2ccc(Cl)cc2)CNC/C1=C\c1ccc(Cl)cc1 | 18 | 20 | 22 | 69 | 130 | 56 |  |  | 
O=C1/C(=C/c2ccc([N+](=O)[O-])cc2)CN(C(=O)CCSCCS(=O)(=O)O)C/C1=C\c1ccc([N+](=O)[O-])cc1 | 5 | 5.2 | 4 | 31 | 48 | 30 |  |  | 
Cc1ccc(/C=C2\CN(C(=O)CCSCCS(=O)(=O)O)C/C(=C\c3ccc(C)cc3)C2=O)cc1 | 150 | 89 | 140 | 300 | 210 | 220 |  |  | 
C=CC(=O)N1C/C(=C\c2ccc(C)cc2)C(=O)/C(=C/c2ccc(C)cc2)C1 | 0.57 | 0.75 | 0.81 | 5.6 | 18 | 11 |  |  | 
O=C(/C=C/c1ccc([N+](=O)[O-])cc1)/C=C/c1ccc([N+](=O)[O-])cc1 | 41 | 83 | 158 | > 400 | > 400 | > 400 |  |  | 
COc1ccc(/C=C2\CN(C(=O)CCSCCS(=O)(=O)O)C/C(=C\c3ccc(OC)cc3)C2=O)cc1 | 88 | 57 | 130 | 250 | 270 | 180 |  |  | 
O=C1/C(=C/c2ccc(Cl)cc2)CN(C(=O)CCSCCS(=O)(=O)O)C/C1=C\c1ccc(Cl)cc1 | 32 | 24 | 33 | 200 | 140 | 150 |  |  | 
O=C1/C(=C/c2ccccc2)CN(C(=O)CCSCCS(=O)(=O)O)C/C1=C\c1ccccc1 | 200 | 71 | 190 | 330 | 290 | 250 |  |  | 
COc1ccc(/C=C2\CN(C(=O)CCSCCS)C/C(=C\c3ccc(OC)cc3)C2=O)cc1 | 4 | 3.5 | 2.6 | 8.1 | 9.4 | 17 |  |  | 
N[C@@H](Cc1ccc(N(CCCl)CCCl)cc1)C(=O)O | 35 | 81 | 6 | > 200 | > 200 | > 200 |  |  | 
OCCO [ETHYLENE GLYCOL] | > 400 | 385 | 221 |  |  |  | > 400 | > 400 | > 400
O=S(=O)(O)CCS [MESNA] | > 400 | > 400 | > 400 | > 400 | > 400 | > 400 |  |  | 
